Results taken from patent US6310043A (priority 1999, dated 2001).

How the values were obtained:
Assay type in all cases: binding, E. coli
[1] = molecular target: SLT-1 (Verotoxin I) (Bacteriophage H30, UniProt P69178); experiment: biochemical; settings: for IC50: read-out: IC50
[2] = molecular target: SLT-2 (VT-2) (Escherichia phage 933W, UniProt P09386)
[3] = molecular target: SLT-1 (VT-1) (Bacteriophage H30, UniProt P69178)
[4] = solid phase assays, protocol A or B

Chain of SLT-1 (VT-1) (P69178 whole entry, looked up): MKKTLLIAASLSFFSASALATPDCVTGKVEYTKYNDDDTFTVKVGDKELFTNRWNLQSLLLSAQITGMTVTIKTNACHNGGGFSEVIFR
Chain of SLT-1 (Verotoxin I) (P69178 whole entry, looked up): as above
Chain of SLT-2 (VT-2) (P09386 whole entry, looked up): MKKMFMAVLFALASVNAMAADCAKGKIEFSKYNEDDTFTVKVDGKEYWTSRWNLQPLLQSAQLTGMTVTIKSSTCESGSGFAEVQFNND

| Compound | IC50 [1] [nM] | IC50 [2] [nM] | IC50 [3] [nM] | relative inhibition of SLT-1 binding to P^k ligand (in words) [1, 4] | fold less active when compared to 22 ([1]; solid phase assays, protocol A or B, SLT-1) |
| --- | --- | --- | --- | --- | --- |
| CO[C@@H]1O[C@H](CO)[C@@H](O[C@@H]2O[C@H](CO)[C@H](O[C@H]3O[C@H](CO)[C@H](O)[C@H](O)[C@H]3O)[C@H](O)[C@H]2OCCOC(=O)NCC(CNC(=O)OCCO[C@H]2[C@H](O[C@H]3[C@H](O)[C@@H](O)[C@H](OC)O[C@@H]3CO)O[C@H](CO)[C@H](O[C@H]3O[C@H](CO)[C@H](O)[C@H](O)[C@H]3O)[C@@H]2O)OC(=O)NCCCCCCCCNc2c(NCCNC(=O)CSCCCOC[C@H]3O[C@@H](OC)[C@H](OCCCSCC(=O)NCCNc4c(NCCCCCCCCNC(=O)OC(CNC(=O)OCCO[C@H]5[C@H](O[C@H]6[C@H](O)[C@@H](O)[C@H](OC)O[C@@H]6CO)O[C@H](CO)[C@H](O[C@H]6O[C@H](CO)[C@H](O)[C@H](O)[C@H]6O)[C@@H]5O)CNC(=O)OCCO[C@H]5[C@H](O[C@H]6[C@H](O)[C@@H](O)[C@H](OC)O[C@@H]6CO)O[C@H](CO)[C@H](O[C@H]6O[C@H](CO)[C@H](O)[C@H](O)[C@H]6O)[C@@H]5O)c(=O)c4=O)[C@@H](OCCCSCC(=O)NCCNc4c(NCCCCCCCCNC(=O)OC(CNC(=O)OCCO[C@H]5[C@H](O[C@H]6[C@H](O)[C@@H](O)[C@H](OC)O[C@@H]6CO)O[C@H](CO)[C@H](O[C@H]6O[C@H](CO)[C@H](O)[C@H](O)[C@H]6O)[C@@H]5O)CNC(=O)OCCO[C@H]5[C@H](O[C@H]6[C@H](O)[C@@H](O)[C@H](OC)O[C@@H]6CO)O[C@H](CO)[C@H](O[C@H]6O[C@H](CO)[C@H](O)[C@H](O)[C@H]6O)[C@@H]5O)c(=O)c4=O)[C@@H]3OCCCSCC(=O)NCCNc3c(NCCCCCCCCNC(=O)OC(CNC(=O)OCCO[C@H]4[C@H](O[C@H]5[C@H](O)[C@@H](O)[C@H](OC)O[C@@H]5CO)O[C@H](CO)[C@H](O[C@H]5O[C@H](CO)[C@H](O)[C@H](O)[C@H]5O)[C@@H]4O)CNC(=O)OCCO[C@H]4[C@H](O[C@H]5[C@H](O)[C@@H](O)[C@H](OC)O[C@@H]5CO)O[C@H](CO)[C@H](O[C@H]5O[C@H](CO)[C@H](O)[C@H](O)[C@H]5O)[C@@H]4O)c(=O)c3=O)c(=O)c2=O)[C@H](O)[C@H]1O [Compound 23] | 1.6 | 9 | 3.3 | – | – |
| CO[C@@H]1O[C@H](CO)[C@@H](O[C@@H]2O[C@H](CO)[C@H](O[C@H]3O[C@H](CO)[C@H](O)[C@H](O)[C@H]3O)[C@H](O)[C@H]2OCCOC(=O)NCCCCCCCCNc2c(NCCNC(=O)CSCCCO[C@@H]3[C@@H](OCCCSCC(=O)NCCNc4c(NCCCCCCCCNC(=O)OCCO[C@H]5[C@H](O[C@H]6[C@H](O)[C@@H](O)[C@H](OC)O[C@@H]6CO)O[C@H](CO)[C@H](O[C@H]6O[C@H](CO)[C@H](O)[C@H](O)[C@H]6O)[C@@H]5O)c(=O)c4=O)[C@H](OC)O[C@H](CO)[C@H]3OCCCSCC(=O)NCCNc3c(NCCCCCCCCNC(=O)OCCO[C@H]4[C@H](O[C@H]5[C@H](O)[C@@H](O)[C@H](OC)O[C@@H]5CO)O[C@H](CO)[C@H](O[C@H]5O[C@H](CO)[C@H](O)[C@H](O)[C@H]5O)[C@@H]4O)c(=O)c3=O)c(=O)c2=O)[C@H](O)[C@H]1O [Compound 27] | 3500 | – | 13600 | the activity drops by several orders of magnitude | – |
| CO[C@@H]1O[C@H](CO)[C@@H](O[C@@H]2O[C@H](CO)[C@H](O[C@H]3O[C@H](CO)[C@H](O)[C@H](O)[C@H]3O)[C@H](O)[C@H]2OCCOC(=O)NCC(CNC(=O)OCCO[C@H]2[C@H](O[C@H]3[C@H](O)[C@@H](O)[C@H](OC)O[C@@H]3CO)O[C@H](CO)[C@H](O[C@H]3O[C@H](CO)[C@H](O)[C@H](O)[C@H]3O)[C@@H]2O)OC(=O)NCCCCCCCCNc2c(NCCNC(=O)CSCCCO[C@@H]3[C@@H](OCCCSCC(=O)NCCNc4c(NCCCCCCCCNC(=O)OC(CNC(=O)OCCO[C@H]5[C@H](O[C@H]6[C@H](O)[C@@H](O)[C@H](OC)O[C@@H]6CO)O[C@H](CO)[C@H](O[C@H]6O[C@H](CO)[C@H](O)[C@H](O)[C@H]6O)[C@@H]5O)CNC(=O)OCCO[C@H]5[C@H](O[C@H]6[C@H](O)[C@@H](O)[C@H](OC)O[C@@H]6CO)O[C@H](CO)[C@H](O[C@H]6O[C@H](CO)[C@H](O)[C@H](O)[C@H]6O)[C@@H]5O)c(=O)c4=O)[C@H](OC)O[C@H](CO)[C@H]3OCCCSCC(=O)NCCNc3c(NCCCCCCCCNC(=O)OC(CNC(=O)OCCO[C@H]4[C@H](O[C@H]5[C@H](O)[C@@H](O)[C@H](OC)O[C@@H]5CO)O[C@H](CO)[C@H](O[C@H]5O[C@H](CO)[C@H](O)[C@H](O)[C@H]5O)[C@@H]4O)CNC(=O)OCCO[C@H]4[C@H](O[C@H]5[C@H](O)[C@@H](O)[C@H](OC)O[C@@H]5CO)O[C@H](CO)[C@H](O[C@H]5O[C@H](CO)[C@H](O)[C@H](O)[C@H]5O)[C@@H]4O)c(=O)c3=O)c(=O)c2=O)[C@H](O)[C@H]1O [Compound 24] | 48 | 29 | 470 | – | – |
| CO[C@@H]1O[C@H](CO)[C@@H](O[C@@H]2O[C@H](CO)[C@H](O[C@H]3O[C@H](CO)[C@H](O)[C@H](O)[C@H]3O)[C@H](O)[C@H]2OCCOC(=O)NCCCCCCCCNc2c(NCCNC(=O)CSCCCOC[C@H]3O[C@@H](OCCCSCC(=O)NCCNc4c(NCCCCCCCCNC(=O)OCCO[C@H]5[C@H](O[C@H]6[C@H](O)[C@@H](O)[C@H](OC)O[C@@H]6CO)O[C@H](CO)[C@H](O[C@H]6O[C@H](CO)[C@H](O)[C@H](O)[C@H]6O)[C@@H]5O)c(=O)c4=O)[C@H](OCCCSCC(=O)NCCNc4c(NCCCCCCCCNC(=O)OCCO[C@H]5[C@H](O[C@H]6[C@H](O)[C@@H](O)[C@H](OC)O[C@@H]6CO)O[C@H](CO)[C@H](O[C@H]6O[C@H](CO)[C@H](O)[C@H](O)[C@H]6O)[C@@H]5O)c(=O)c4=O)[C@@H](OCCCSCC(=O)NCCNc4c(NCCCCCCCCNC(=O)OCCO[C@H]5[C@H](O[C@H]6[C@H](O)[C@@H](O)[C@H](OC)O[C@@H]6CO)O[C@H](CO)[C@H](O[C@H]6O[C@H](CO)[C@H](O)[C@H](O)[C@H]6O)[C@@H]5O)c(=O)c4=O)[C@@H]3OCCCSCC(=O)NCCNc3c(NCCCCCCCCNC(=O)OCCO[C@H]4[C@H](O[C@H]5[C@H](O)[C@@H](O)[C@H](OC)O[C@@H]5CO)O[C@H](CO)[C@H](O[C@H]5O[C@H](CO)[C@H](O)[C@H](O)[C@H]5O)[C@@H]4O)c(=O)c3=O)c(=O)c2=O)[C@H](O)[C@H]1O [Compound 25] | 24 | – | 1230 | – | 500-1000 fold |
| CO[C@@H]1O[C@H](CO)[C@@H](O[C@@H]2O[C@H](CO)[C@H](O[C@H]3O[C@H](CO)[C@H](O)[C@H](O)[C@H]3O)[C@H](O)[C@H]2OCCOC(=O)NCCCCCCCCNc2c(NCCNC(=O)CSCCCOC[C@H]3O[C@@H](OC)[C@H](OCCCSCC(=O)NCCNc4c(NCCCCCCCCNC(=O)OCCO[C@H]5[C@H](O[C@H]6[C@H](O)[C@@H](O)[C@H](OC)O[C@@H]6CO)O[C@H](CO)[C@H](O[C@H]6O[C@H](CO)[C@H](O)[C@H](O)[C@H]6O)[C@@H]5O)c(=O)c4=O)[C@@H](OCCCSCC(=O)NCCNc4c(NCCCCCCCCNC(=O)OCCO[C@H]5[C@H](O[C@H]6[C@H](O)[C@@H](O)[C@H](OC)O[C@@H]6CO)O[C@H](CO)[C@H](O[C@H]6O[C@H](CO)[C@H](O)[C@H](O)[C@H]6O)[C@@H]5O)c(=O)c4=O)[C@@H]3OCCCSCC(=O)NCCNc3c(NCCCCCCCCNC(=O)OCCO[C@H]4[C@H](O[C@H]5[C@H](O)[C@@H](O)[C@H](OC)O[C@@H]5CO)O[C@H](CO)[C@H](O[C@H]5O[C@H](CO)[C@H](O)[C@H](O)[C@H]5O)[C@@H]4O)c(=O)c3=O)c(=O)c2=O)[C@H](O)[C@H]1O [Compound 26] | 350 | – | 3400 | the activity drops by several orders of magnitude | – |
